Biological target: TNFα (Homo sapiens (Human), UniProt P01375)
Assay: TNF induced HEK-Blue assay
Format: cell-based
Conditions: HEK-Blue-CD40L cells, TNFα 0.5 ng/ml, NF-κB-driven secreted alkaline phosphatase reporter, 18 h
Protocol: TNF or CD40L-Induced HEK-Blue Assay
Test compounds serially diluted in DMSO were plated in an assay plate (Labcyte, Cat. #LP-0200) at final concentrations ranging from 0.004 μM to 25 μM. TNFα (final concentration 0.5 ng/ml) or CD40L (final concentration 30 ng/ml) in assay buffer [DMEM, 4.5 g/l glucose (Gibco, Cat. 21063-029), 10% FBS (Sigma, F4135), 1% Penicillin-Streptomycin (Gibco, Cat. 15140-122), 1% Anti-Anti (Gibco, Cat. 15240-112) and 2 mM L-glutamine (Gibco, Cat. 25030-081)] was then added to the assay plate. After a 30 minute pre-incubation at 37° C. and 5% CO2, HEK-Blue-CD40L cells (InvivoGen, Cat. Code hkb-cd40) containing a NF-κB-driven secreted alkaline phosphatase reporter gene were seeded into the assay plate at a density of 20,000 cells per well. This plate was then incubated for 18 h at 37° C. and 5% CO2. Secreted alkaline phosphatase expression was measured using QUANTI-Blue (InvivoGen, Cat. Code rep-qbl) according to manufacturer's specifications and the assay plate was read on a PerkinElmer Envision at 620 nm.
Inhibition data for the test compound over a range of concentrations was plotted as percentage inhibition of the test compound (100%=maximum inhibition). IC50 values were determined after correcting for background [(sample read−mean of low control)/(mean of high control−mean of low control)] where by the low control is DMSO without stimulation and high control is DMSO with stimulation. The IC50 is defined as the concentration of test compound which produces 50% inhibition and was quantified using the 4 parameter logistic equation to fit the data.

Chain of TNFα (P01375 77-233): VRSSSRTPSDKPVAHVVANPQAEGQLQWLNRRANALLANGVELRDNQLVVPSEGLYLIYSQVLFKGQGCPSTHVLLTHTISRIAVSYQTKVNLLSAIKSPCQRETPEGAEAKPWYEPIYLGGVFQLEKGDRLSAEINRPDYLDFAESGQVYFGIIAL

Compound	IC50 [nM]
Cc1ccc(C)c(N2CCCc3nc4ccc(-c5ccc(C(C)(C)O)cc5)cn4c32)c1 [Example 36, 2-(4-(1-(2,5-Dimethylphenyl)-1,2,3,4-tetrahydroimidazo[1,2-a:5,4-b′]dipyridin-8-yl)phenyl)propan-2-ol]	1000 to 10000
CC1CCN(c2ccccc2OC(F)F)c2c1nc1ccc(-c3cnn(C)c3)cn21 (stereo not drawn) [Example 40, 1-(2-(Difluoromethoxy)phenyl)-4-methyl-8-(1-methyl-1H-pyrazol-4-yl)-1,2,3,4-tetrahydroimidazo[1,2-a:5,4-b′]dipyridine]	< 1000
Cc1ccc(C)c(N2CCCc3nc4c(C)c(C)c(-c5cnc(N6CCOCC6)nc5)cn4c32)c1 [Example 41, 4-(5-(1-(2,5-Dimethylphenyl)-6,7-dimethyl-1,2,3,4-tetrahydroimidazo [1,2-a:5,4-b′]dipyridin-8-yl)pyrimidin-2-yl)morpholine]	1000 to 10000

Results, then the compound that gave them:

IC50 [nM]	Compound
< 1000	COc1ccc(-c2ccc3nc4c(n3c2)N(c2cc(C)ccc2C)CCC4C)cn1 (stereo not drawn) [Example 37, 1-(2,5-Dimethylphenyl)-8-(6-methoxypyridin-3-yl)-4-methyl-1,2,3,4-tetrahydroimidazo[1,2-a:5,4-b′]dipyridine]
< 1000	COc1ccc(-c2ccc3nc4c(n3c2)N(c2ccccc2OC(F)F)CCC4C)cn1 (stereo not drawn) [Example 38, 1-(2-(Difluoromethoxy)phenyl)-8-(6-methoxypyridin-3-yl)-4-methyl-1,2,3,4-tetrahydroimidazo[1,2-a:5,4-b′]dipyridine]
< 1000	Cc1ccc(C)c(N2CCC(C)c3nc4ccc(-c5cnn(C)c5)cn4c32)c1 (stereo not drawn) [Example 39, 1-(2,5-Dimethylphenyl)-4-methyl-8-(1-methyl-1H-pyrazol-4-yl)-1,2,3,4-tetrahydroimidazo[1,2-a:5,4-b′]dipyridine]
